Assay results from ChEMBL document CHEMBL3885861, “Open TG-GATES”.

Species: Rattus norvegicus
Assay: Open TG-GATES - Regimen: Single
Format: toxicity, organism-based, Sprague-Dawley
Parameters: regimen Single, gender Male, age 6 weeks
Conditions: in vivo, iv, route intravenous injection; for KIDNEY_L / KIDNEY_R / KIDNEY_TOTAL: tissue Kidney; for LIVER: tissue Liver; for ALP / ALT / BUN / CRE / DBIL / GLC / IP / K / LDH / PL / RALB / TBIL / TC / TG / TP / gamma-GTP / AST / Na: tissue Plasma
[1] = 30 mg/kg, 3 h, tissue Blood, dose level Middle
[2] = 30 mg/kg, 3 h, dose level Middle
[3] = 30 mg/kg, 6 h, tissue Blood, dose level Middle
[4] = 30 mg/kg, 6 h, dose level Middle
[5] = 30 mg/kg, 9 h, dose level Middle
[6] = 30 mg/kg, 9 h, tissue Blood, dose level Middle
[7] = 30 mg/kg, 24 h, dose level Middle
[8] = 30 mg/kg, 24 h, tissue Blood, dose level Middle
[9] = 100 mg/kg, 3 h, tissue Blood, dose level High
[10] = 100 mg/kg, 3 h, dose level High
[11] = 100 mg/kg, 6 h, dose level High
[12] = 100 mg/kg, 6 h, tissue Blood, dose level High
[13] = 100 mg/kg, 9 h, dose level High
[14] = 100 mg/kg, 9 h, tissue Blood, dose level High
[15] = 100 mg/kg, 24 h, dose level High
[16] = 100 mg/kg, 24 h, tissue Blood, dose level High

CARBOPLATIN
APTT [1]: 23.3 s
Bas [1]: 0%
Eos [1]: 1%
Fbg [1]: 273.2 mg/dL
Hb [1]: 13 g/dL
Ht [1]: 40.3%
Lym [1]: 81.8%
MCV [1]: 63.6 fL
Mono [1]: 2.4%
PT [1]: 15.6 s
Plat [1]: 123.8 x10_4/uL
RBC [1]: 633.4 x10_4/ul
Ret [1]: 5.6%
WBC [1]: 77.3 x10_2/uL
KIDNEY_L [2]: 0.9 g
KIDNEY_R [2]: 0.9 g
KIDNEY_TOTAL [2]: 1.9 g
LIVER [2]: 9.5 g
ALP [2]: 1595 IU/L
ALT [2]: 41.4 IU/L
BUN [2]: 11 mg/dL
CRE [2]: 0.2 mg/dL
DBIL [2]: 0 mg/dL
GLC [2]: 175 mg/dL
IP [2]: 8.6 mg/dL
K [2]: 4 meq/L
LDH [2]: 183.4 IU/L
PL [2]: 126.6 mg/dL
RALB [2]: 3 g/dL
TBIL [2]: 0.014 mg/dL
TC [2]: 67 mg/dL
TG [2]: 75 mg/dL
TP [2]: 5.4 g/dL
gamma-GTP [2]: 1.2 IU/L
APTT [3]: 22.6 s
Bas [3]: 0%
Eos [3]: 0.8%
Fbg [3]: 273.4 mg/dL
Hb [3]: 12.8 g/dL
Ht [3]: 39.7%
Lym [3]: 77.4%
MCHC [3]: 32.2%
MCV [3]: 63.8 fL
Mono [3]: 4%
Neu [3]: 16.6%
PT [3]: 15.9 s
Plat [3]: 120 x10_4/uL
RBC [3]: 623.2 x10_4/ul
Ret [3]: 6.3%
WBC [3]: 102.3 x10_2/uL
KIDNEY_L [4]: 0.9 g
KIDNEY_R [4]: 0.9 g
KIDNEY_TOTAL [4]: 1.8 g
LIVER [4]: 8.7 g
ALP [4]: 1276.8 IU/L
ALT [4]: 42 IU/L
AST [4]: 77.8 IU/L
CRE [4]: 0.2 mg/dL
DBIL [4]: 0 mg/dL
GLC [4]: 174.6 mg/dL
IP [4]: 9.6 mg/dL
K [4]: 4.4 meq/L
Na [4]: 139.4 meq/L
PL [4]: 126 mg/dL
RALB [4]: 2.9 g/dL
TBIL [4]: 0.012 mg/dL
TC [4]: 73.4 mg/dL
TG [4]: 68.6 mg/dL
TP [4]: 5.3 g/dL
gamma-GTP [4]: 1 IU/L
TERMINAL_BW [5]: 197.2 g
APTT [6]: 24.3 s
Bas [6]: 0%
Eos [6]: 0.6%
Fbg [6]: 280.2 mg/dL
Hb [6]: 12.8 g/dL
Ht [6]: 39.6%
Lym [6]: 72.2%
MCHC [6]: 32.4%
MCV [6]: 62 fL
Mono [6]: 2.4%
Neu [6]: 24%
PT [6]: 15.9 s
Plat [6]: 119 x10_4/uL
RBC [6]: 638.6 x10_4/ul
Ret [6]: 5.9%
WBC [6]: 68.8 x10_2/uL
KIDNEY_L [5]: 0.9 g
KIDNEY_R [5]: 1 g
KIDNEY_TOTAL [5]: 1.9 g
LIVER [5]: 7.9 g
ALP [5]: 1295.4 IU/L
ALT [5]: 38.8 IU/L
AST [5]: 81 IU/L
BUN [5]: 10 mg/dL
CRE [5]: 0.1 mg/dL
DBIL [5]: 0 mg/dL
GLC [5]: 173.6 mg/dL
IP [5]: 9.7 mg/dL
K [5]: 4.3 meq/L
LDH [5]: 182.2 IU/L
Na [5]: 139.6 meq/L
PL [5]: 118.8 mg/dL
RALB [5]: 2.9 g/dL
TBIL [5]: 0.014 mg/dL
TC [5]: 63 mg/dL
TG [5]: 55 mg/dL
TP [5]: 5.4 g/dL
gamma-GTP [5]: 1.2 IU/L
TERMINAL_BW [7]: 208.3 g
APTT [8]: 23 s
Bas [8]: 0%
Eos [8]: 0.8%
Fbg [8]: 295.6 mg/dL
Hb [8]: 12.9 g/dL
Ht [8]: 39.9%
Lym [8]: 88.4%
MCHC [8]: 32.2%
Mono [8]: 3.4%
Neu [8]: 6.6%
PT [8]: 16.1 s
Plat [8]: 125 x10_4/uL
RBC [8]: 639.8 x10_4/ul
Ret [8]: 4.5%
WBC [8]: 72.2 x10_2/uL
KIDNEY_L [7]: 0.9 g
KIDNEY_R [7]: 1 g
KIDNEY_TOTAL [7]: 1.9 g
LIVER [7]: 9.3 g
ALP [7]: 1504.2 IU/L
ALT [7]: 44.8 IU/L
AST [7]: 72.8 IU/L
CRE [7]: 0.2 mg/dL
DBIL [7]: 0.002 mg/dL
GLC [7]: 179.6 mg/dL
IP [7]: 8.1 mg/dL
K [7]: 4.3 meq/L
LDH [7]: 211.2 IU/L
Na [7]: 139.8 meq/L
PL [7]: 126.6 mg/dL
RALB [7]: 3 g/dL
TBIL [7]: 0.02 mg/dL
TC [7]: 70.4 mg/dL
TG [7]: 60.4 mg/dL
TP [7]: 5.5 g/dL
gamma-GTP [7]: 1.2 IU/L
APTT [9]: 22.8 s
Bas [9]: 0%
Eos [9]: 0.6%
Fbg [9]: 275 mg/dL
MCHC [9]: 32.4%
MCV [9]: 64.2 fL
Mono [9]: 2.8%
Neu [9]: 17.2%
PT [9]: 15.7 s
Plat [9]: 123.5 x10_4/uL
RBC [9]: 630.8 x10_4/ul
Ret [9]: 6.4%
WBC [9]: 81.4 x10_2/uL
KIDNEY_L [10]: 0.9 g
KIDNEY_R [10]: 0.9 g
KIDNEY_TOTAL [10]: 1.9 g
LIVER [10]: 9.2 g
ALP [10]: 1630.8 IU/L
ALT [10]: 45 IU/L
BUN [10]: 12 mg/dL
CRE [10]: 0.2 mg/dL
DBIL [10]: 0 mg/dL
GLC [10]: 170.6 mg/dL
IP [10]: 9.1 mg/dL
K [10]: 4.2 meq/L
LDH [10]: 173.8 IU/L
PL [10]: 129 mg/dL
RALB [10]: 3 g/dL
TBIL [10]: 0.014 mg/dL
TC [10]: 69.8 mg/dL
TG [10]: 70.8 mg/dL
TP [10]: 5.3 g/dL
gamma-GTP [10]: 1.2 IU/L
TERMINAL_BW [11]: 200.2 g
APTT [12]: 24.4 s
Bas [12]: 0%
Eos [12]: 0.8%
Fbg [12]: 286.8 mg/dL
Ht [12]: 41.1%
Lym [12]: 76%
MCH [12]: 20 pg
MCHC [12]: 32.2%
MCV [12]: 62.2 fL
Mono [12]: 6.4%
Plat [12]: 125.8 x10_4/uL
RBC [12]: 663.8 x10_4/ul
Ret [12]: 5.2%
WBC [12]: 91 x10_2/uL
KIDNEY_L [11]: 1 g
KIDNEY_R [11]: 1 g
KIDNEY_TOTAL [11]: 1.9 g
LIVER [11]: 8.2 g
ALP [11]: 1531.2 IU/L
ALT [11]: 40.4 IU/L
AST [11]: 84.4 IU/L
BUN [11]: 10.8 mg/dL
CRE [11]: 0.2 mg/dL
DBIL [11]: 0 mg/dL
GLC [11]: 176.6 mg/dL
IP [11]: 9.5 mg/dL
K [11]: 4.2 meq/L
LDH [11]: 177.8 IU/L
Na [11]: 140 meq/L
PL [11]: 109.6 mg/dL
RALB [11]: 2.9 g/dL
TBIL [11]: 0.02 mg/dL
TC [11]: 61.8 mg/dL
TG [11]: 37.4 mg/dL
TP [11]: 5.3 g/dL
gamma-GTP [11]: 1.2 IU/L
TERMINAL_BW [13]: 204.6 g
APTT [14]: 24.9 s
Bas [14]: 0%
Eos [14]: 0.8%
Fbg [14]: 299.4 mg/dL
Ht [14]: 40.5%
Lym [14]: 73.8%
MCHC [14]: 32.4%
MCV [14]: 62.8 fL
Mono [14]: 3.4%
Neu [14]: 21.2%
PT [14]: 15.9 s
Plat [14]: 136.6 x10_4/uL
RBC [14]: 645.2 x10_4/ul
Ret [14]: 6.1%
WBC [14]: 69 x10_2/uL
KIDNEY_L [13]: 0.9 g
KIDNEY_R [13]: 1 g
KIDNEY_TOTAL [13]: 1.9 g
LIVER [13]: 8.4 g
ALP [13]: 1146.6 IU/L
ALT [13]: 34.4 IU/L
AST [13]: 72.8 IU/L
CRE [13]: 0.2 mg/dL
DBIL [13]: 0 mg/dL
GLC [13]: 174.8 mg/dL
IP [13]: 9.9 mg/dL
K [13]: 4.5 meq/L
LDH [13]: 172.4 IU/L
Na [13]: 139.4 meq/L
RALB [13]: 2.9 g/dL
TBIL [13]: 0.022 mg/dL
TC [13]: 69.2 mg/dL
TG [13]: 54.4 mg/dL
TP [13]: 5.2 g/dL
gamma-GTP [13]: 1.6 IU/L
TERMINAL_BW [15]: 203.7 g
APTT [16]: 23.6 s
Bas [16]: 0%
Eos [16]: 0.2%
Fbg [16]: 306.2 mg/dL
Hb [16]: 12.9 g/dL
Ht [16]: 40.2%
Lym [16]: 82.6%
MCHC [16]: 32.2%
Mono [16]: 4%
Neu [16]: 12%
PT [16]: 16.2 s
Plat [16]: 123.1 x10_4/uL
RBC [16]: 641.4 x10_4/ul
Ret [16]: 2.7%
WBC [16]: 69.6 x10_2/uL
KIDNEY_L [15]: 0.9 g
KIDNEY_R [15]: 1 g
KIDNEY_TOTAL [15]: 1.9 g
LIVER [15]: 8.8 g
ALP [15]: 1486.6 IU/L
ALT [15]: 41.2 IU/L
AST [15]: 76.8 IU/L
CRE [15]: 0.2 mg/dL
DBIL [15]: 0.002 mg/dL
GLC [15]: 179.2 mg/dL
IP [15]: 8.4 mg/dL
K [15]: 4.3 meq/L
LDH [15]: 176.8 IU/L
PL [15]: 135.6 mg/dL
RALB [15]: 3.1 g/dL
TBIL [15]: 0.022 mg/dL
TC [15]: 78.6 mg/dL
TG [15]: 51.2 mg/dL
TP [15]: 5.6 g/dL
gamma-GTP [15]: 1.2 IU/L
